Test results published in ChEMBL document CHEMBL5370592, “Synthesis and Structure-Activity Relationships of a New Class of Oxadiazoles Targeting DprE1 as Antitubercular Agents” (ACS Med Chem Lett, 2023).
Values after ≈ are worked out from the molar mass of the structure shown.

How the values were obtained:
Assay type in all cases: functional
[1] = tested on: Mycobacterium tuberculosis; experiment: Antitubercular activity against isoniazid/ofloxacin/prothionamide-resistant Mycobacterium tuberculosis NIH1B127 assessed as inhibition of bacterial growth incubated for 2 weeks; conditions: NIH1B127, 336 h
[2] = tested on: Mycobacterium tuberculosis; experiment: Antitubercular activity against isoniazid/prothionamide-resistant Mycobacterium tuberculosis NIHA38 assessed as inhibition of bacterial growth incubated for 2 weeks; conditions: NIHA38, 336 h
[3] = tested on: Mycobacterium tuberculosis; experiment: Antitubercular activity against isoniazid/rifampicin/ethambutol/pyrazinamide/streptomycin/kanamycin/para-aminosalicylic acid/prothionamide-resistant Mycobacterium tuberculosis K33b00MR assessed as inhibition of bacterial growth incubated for 2 weeks; conditions: 336 h
[4] = tested on: Mycobacterium tuberculosis; experiment: Antitubercular activity against extensively drug-resistant Mycobacterium tuberculosis NIHB13 assessed as inhibition of bacterial growth incubated for 2 weeks; conditions: NIHB13, 336 h
[5] = tested on: Mycobacterium tuberculosis; experiment: Antitubercular activity against isoniazid/rifampicin/pyrazinamide/prothionamide/rifabutin/ofloxacin/moxifloxacin/levofloxacin-resistant Mycobacterium tuberculosis NIHB188 assessed as inhibition of bacterial growth incubated for 2 weeks; conditions: NIHB188, 336 h
[6] = tested on: Mycobacterium tuberculosis; experiment: Antitubercular activity against isoniazid/rifampicin/ethambutol/pyrazinamid/rifabutin-resistant Mycobacterium tuberculosis K26b00MR assessed as inhibition of bacterial growth incubated for 2 weeks; conditions: 336 h
[7] = tested on: Mycobacterium tuberculosis; experiment: Antitubercular activity against isonizaid/rifampicin/ethambutol/rifabutin-resistant Mycobacterium tuberculosis NIH_G22R assessed as inhibition of bacterial growth incubated for 2 weeks; conditions: 336 h
[8] = tested on: Mycobacterium tuberculosis; experiment: Antitubercular activity against ethambutol/D-cycloserine-resistant Mycobacterium tuberculosis NIH_G11R assessed as inhibition of bacterial growth incubated for 2 weeks; conditions: 336 h
[9] = tested on: Mycobacterium tuberculosis; experiment: Antitubercular activity against isoniazid/rifampicin/ethambutol/pyrazinamide/rifabutin/prothionamide-resistant Mycobacterium tuberculosis NIHB302 assessed as inhibition of bacterial growth incubated for 2 weeks; conditions: NIHB302, 336 h
[10] = tested on: Mycobacterium tuberculosis; experiment: Antitubercular activity against isoniazid/rifampicin/moxifloxacin-resistant Mycobacterium tuberculosis NIH_G367DR assessed as inhibition of bacterial growth incubated for 2 weeks; conditions: 336 h
[11] = tested on: Mycobacterium tuberculosis; experiment: Antitubercular activity against isoniazid/ethambutol/prothionamide/D-cycloserine/ofloxacin/levofloxacin/pyrazinamide-resistant Mycobacterium tuberculosis NIH1B314 assessed as inhibition of bacterial growth incubated for 2 weeks; conditions: NIH1B314, 336 h
[12] = tested on: Mycobacterium tuberculosis; experiment: Antitubercular activity against isoniazid/rifampicin/ethambutol/pyrazinamide/streptomycin/kanamycin-resistant Mycobacterium tuberculosis K20b00MR assessed as inhibition of bacterial growth incubated for 2 weeks; conditions: 336 h
[13] = tested on: Mycobacterium tuberculosis; experiment: Antitubercular activity against isoniazid/rifampicin/para-aminosalicylic acid/pyrazinamide/prothionamide/rifabutin-resistant Mycobacterium tuberculosis NIHB68 assessed as inhibition of bacterial growth incubated for 2 weeks; conditions: NIHB68, 336 h
[14] = tested on: Mycobacterium tuberculosis; experiment: Antitubercular activity against extensively drug-resistant Mycobacterium tuberculosis NIH1B178 assessed as inhibition of bacterial growth incubated for 2 weeks; conditions: NIH1B178, 336 h
[15] = tested on: Mycobacterium tuberculosis; experiment: Antitubercular activity against extensively drug-resistant Mycobacterium tuberculosis 026K111 assessed as inhibition of bacterial growth incubated for 2 weeks; conditions: 026K111, 336 h
[16] = tested on: Mycobacterium tuberculosis; experiment: Antitubercular activity against ethionamide-resistant Mycobacterium tuberculosis NIH_G145 assessed as inhibition of bacterial growth incubated for 2 weeks; conditions: NIH_G145, 336 h
[17] = tested on: Mycobacterium tuberculosis; experiment: Antitubercular activity against isoniazid/prothionamide-resistant Mycobacterium tuberculosis NIHB140 assessed as inhibition of bacterial growth incubated for 2 weeks; conditions: NIHB140, 336 h
[18] = tested on: Mycobacterium tuberculosis; experiment: Antitubercular activity against isonizaid/rifampicin/ethionamide/prothionamide-resistant Mycobacterium tuberculosis NIHA48 assessed as inhibition of bacterial growth incubated for 2 weeks; conditions: NIHA48, 336 h
[19] = tested on: Mycobacterium tuberculosis; experiment: Antitubercular activity against isoniazid/ethionamide/D-cycloserine-resistant Mycobacterium tuberculosis NIH_G17R assessed as inhibition of bacterial growth incubated for 2 weeks; conditions: 336 h
[20] = tested on: Mycobacterium tuberculosis; experiment: Antitubercular activity against isoniazid/rifampicin/ethambutol/rifabutin-resistant Mycobacterium tuberculosis K18b01MR assessed as inhibition of bacterial growth incubated for 2 weeks; conditions: 336 h
[21] = tested on: Mycobacterium tuberculosis; experiment: Antitubercular activity against rifampicin/isoniazid/streptomycin/prothionamide-resistant Mycobacterium tuberculosis NIHB43 assessed as inhibition of bacterial growth incubated for 2 weeks; conditions: NIHB43, 336 h
[22] = tested on: Mycobacterium tuberculosis; experiment: Antitubercular activity against extensively drug-resistant Mycobacterium tuberculosis 028K111 assessed as inhibition of bacterial growth incubated for 2 weeks; conditions: 028K111, 336 h
[23] = tested on: Mycobacterium tuberculosis; experiment: Antitubercular activity against isoniazid/rifampicin/streptomycin-resistant Mycobacterium tuberculosis clinical strain 01291696 assessed as inhibition of bacterial growth incubated for 2 weeks; conditions: Mycobacterium tuberculosis, 01291696, 336 h
[24] = tested on: Mycobacterium tuberculosis; experiment: Antitubercular activity against isoniazid/rifampicin/moxifloxacin-resistant Mycobacterium tuberculosis NIH_G76MR assessed as inhibition of bacterial growth incubated for 2 weeks; conditions: 336 h
[25] = tested on: Mycobacterium tuberculosis; experiment: Antitubercular activity against isoniazid/ethionamide-resistant Mycobacterium tuberculosis NIH1B21 assessed as inhibition of bacterial growth incubated for 2 weeks; conditions: NIH1B21, 336 h
[26] = tested on: Mycobacterium tuberculosis; experiment: Antitubercular activity against isoniazid/rifampicin/ethambutol/pyrazinamide/prothionamide/ofloxacin/levofloxacin/rifabutin-resistant Mycobacterium tuberculosis NIHB270 assessed as inhibition of bacterial growth incubated for 2 weeks; conditions: NIHB270, 336 h
[27] = tested on: Mycobacterium tuberculosis; experiment: Antitubercular activity against isoniazid/rifampicin/para-aminosalicylic acid/ofloxacin/prothionamide-resistant Mycobacterium tuberculosis NIHB67 assessed as inhibition of bacterial growth incubated for 2 weeks; conditions: NIHB67, 336 h
[28] = tested on: Mycobacterium tuberculosis; experiment: Antitubercular activity against isoniazid/rifampicin/ethambutol/streptomycin/D-cycloserine/rifabutin-resistant Mycobacterium tuberculosis NIH_G19R assessed as inhibition of bacterial growth incubated for 2 weeks; conditions: 336 h
[29] = tested on: Mycobacterium tuberculosis; experiment: Antitubercular activity against isoniazid/rifampicin/ethambutol/rifabutin-resistant Mycobacterium tuberculosis K22b00MR assessed as inhibition of bacterial growth incubated for 2 weeks; conditions: 336 h
[30] = tested on: Mycobacterium tuberculosis; experiment: Antitubercular activity against extensively drug-resistant Mycobacterium tuberculosis NIH1B250 assessed as inhibition of bacterial growth incubated for 2 weeks; conditions: NIH1B250, 336 h
[31] = tested on: Mycobacterium tuberculosis; experiment: Antitubercular activity against isonizaid/rifampicin/ethambutol/rifabutin-resistant Mycobacterium tuberculosis NIH_G269DR assessed as inhibition of bacterial growth incubated for 2 weeks; conditions: 336 h
[32] = tested on: Mycobacterium tuberculosis; experiment: Antitubercular activity against isoniazid/rifampicin/streptomycin/para-aminosalicylic acid/ofloxacin-resistant Mycobacterium tuberculosis K29b00MR assessed as inhibition of bacterial growth incubated for 2 weeks; conditions: 336 h
[33] = tested on: Mycobacterium tuberculosis; experiment: Antitubercular activity against extensively drug-resistant Mycobacterium tuberculosis clinical strain 00202293 assessed as inhibition of bacterial growth incubated for 2 weeks; conditions: Mycobacterium tuberculosis, 00202293, 336 h
[34] = tested on: Mycobacterium tuberculosis; experiment: Antitubercular activity against isoniazid/rifampicin/ethambutol/streptomycin-resistant Mycobacterium tuberculosis K21b00MR assessed as inhibition of bacterial growth incubated for 2 weeks; conditions: 336 h
[35] = tested on: Mycobacterium tuberculosis; experiment: Antitubercular activity against isonizaid/rifampicin/rifabutin-resistant Mycobacterium tuberculosis NIHA37 assessed as inhibition of bacterial growth incubated for 2 weeks; conditions: NIHA37, 336 h
[36] = tested on: Mycobacterium tuberculosis; experiment: Antitubercular activity against streptomycin/D-cycloserine-resistant Mycobacterium tuberculosis NIH_G169 assessed as inhibition of bacterial growth incubated for 2 weeks; conditions: NIH_G169, 336 h
[37] = tested on: Mycobacterium tuberculosis; experiment: Antitubercular activity against isoniazid/rifampicin/ethambutol/rifabutin-resistant Mycobacterium tuberculosis NIH_G10R assessed as inhibition of bacterial growth incubated for 2 weeks; conditions: 336 h
[38] = tested on: Mycobacterium tuberculosis; experiment: Antitubercular activity against extensively drug-resistant Mycobacterium tuberculosis clinical strain X37b00XR assessed as inhibition of bacterial growth incubated for 2 weeks; conditions: 336 h
[39] = tested on: Mycobacterium tuberculosis; experiment: Antitubercular activity against isoniazid/rifampicin/kanamycin/pyrazinamide/capreomycin/amikacin/prothionamide/D-cycloserine-resistant Mycobacterium tuberculosis K32b00MR assessed as inhibition of bacterial growth incubated for 2 weeks; conditions: 336 h
[40] = tested on: Mycobacterium tuberculosis; experiment: Antitubercular activity against isonizaid/rifampicin/streptomycin/ethionamide-resistant Mycobacterium tuberculosis NIH_G79 assessed as inhibition of bacterial growth incubated for 2 weeks; conditions: NIH_G79, 336 h
[41] = tested on: Mycobacterium tuberculosis; experiment: Antitubercular activity against isoniazid/rifampicin/ethambutol/pyrazinamid/rifabutin/prothionamide-resistant Mycobacterium tuberculosis K25b00MR assessed as inhibition of bacterial growth incubated for 2 weeks; conditions: 336 h
[42] = tested on: Mycobacterium tuberculosis; experiment: Antitubercular activity against isonizaid/rifampicin/ethambutol/rifabutin/D-cycloserine-resistant Mycobacterium tuberculosis NIH_G21R assessed as inhibition of bacterial growth incubated for 2 weeks; conditions: 336 h
[43] = tested on: Mycobacterium tuberculosis; experiment: Antitubercular activity against isoniazid/rifampicin/ethambutol/para-aminosalicylic acid/kanamycin/ofloxacin/prothionamide-resistant Mycobacterium tuberculosis Kb019 assessed as inhibition of bacterial growth incubated for 2 weeks; conditions: Kb019, 336 h

COc1nc2ccc(Br)cc2cc1[C@@H](c1ccccc1)[C@@](O)(CCN(C)C)c1cccc2ccccc12 [BEDAQUILINE]
MIC [1]: 0.1 µM (≈ 0.0556 µg/mL)
MIC [2]: 0.05 µM (≈ 0.0278 µg/mL)
MIC [3]: 0.07 µM (≈ 0.0389 µg/mL)
MIC [4]: 0.05 µM (≈ 0.0278 µg/mL)
MIC [5]: 0.04 µM (≈ 0.0222 µg/mL)
MIC [6]: 0.1 µM (≈ 0.0556 µg/mL)
MIC [7]: 0.1 µM (≈ 0.0556 µg/mL)
MIC [8]: 0.15 µM (≈ 0.0833 µg/mL)
MIC [9]: 0.04 µM (≈ 0.0222 µg/mL)
MIC [10]: < 0.02 µM
MIC [11]: < 0.02 µM
MIC [12]: < 0.02 µM
MIC [13]: 0.1 µM (≈ 0.0556 µg/mL)
MIC [14]: 0.05 µM (≈ 0.0278 µg/mL)
MIC [15]: 0.2 µM (≈ 0.111 µg/mL)
MIC [16]: 0.2 µM (≈ 0.111 µg/mL)
MIC [17]: 0.05 µM (≈ 0.0278 µg/mL)
MIC [18]: 0.1 µM (≈ 0.0556 µg/mL)
MIC [19]: 0.1 µM (≈ 0.0556 µg/mL)
MIC [20]: 0.04 µM (≈ 0.0222 µg/mL)
MIC [21]: 0.05 µM (≈ 0.0278 µg/mL)
MIC [22]: 0.15 µM (≈ 0.0833 µg/mL)
MIC [23]: 0.05 µM (≈ 0.0278 µg/mL)
MIC [24]: < 0.02 µM
MIC [25]: 0.07 µM (≈ 0.0389 µg/mL)
MIC [26]: 0.07 µM (≈ 0.0389 µg/mL)
MIC [27]: 0.3 µM (≈ 0.167 µg/mL)
MIC [28]: 0.1 µM (≈ 0.0556 µg/mL)
MIC [29]: 0.15 µM (≈ 0.0833 µg/mL)
MIC [30]: 0.07 µM (≈ 0.0389 µg/mL)
MIC [31]: 0.1 µM (≈ 0.0556 µg/mL)
MIC [32]: 0.2 µM (≈ 0.111 µg/mL)
MIC [33]: 0.02 µM (≈ 0.0111 µg/mL)
MIC [34]: 0.07 µM (≈ 0.0389 µg/mL)
MIC [35]: 0.05 µM (≈ 0.0278 µg/mL)
MIC [36]: 0.15 µM (≈ 0.0833 µg/mL)
MIC [37]: 0.1 µM (≈ 0.0556 µg/mL)
MIC [38]: 0.1 µM (≈ 0.0556 µg/mL)
MIC [39]: 0.1 µM (≈ 0.0556 µg/mL)
MIC [40]: 0.07 µM (≈ 0.0389 µg/mL)
MIC [41]: 0.1 µM (≈ 0.0556 µg/mL)
MIC [42]: 0.02 µM (≈ 0.0111 µg/mL)
MIC [43]: 0.07 µM (≈ 0.0389 µg/mL)
